# According to article PMC11014391 (2024):
# What was measured:
# [1] = tested on: SAM-I^AD (yitJ SAM-I aptamer domain) (RNA, riboswitch) GGGCGUUCUUAUCAAGAGAAGCAGAGGGACUGGCCCGACGAAGCUUCAGCAACCGGUGUAAUGGCGAUCAGCCAUGACCAAGGUGCUAAAUCCAGCAAGCUCGAACAGCUUGGAAGAUAAGAAGCCCCCAAAAAAAAAAAAAAAAAAAAAAAA; assay: SPR steady state; conditions: 150 mM NaCl, MgCl2; HBS-N, 10 mM HEPES pH 7.4
# [2] = tested on: SAM-I^1-156 (RNA, riboswitch) GGGAUAUCCGUUCUUAUCAAGAGAAGCAGAGGGACUGGCCCGACGAAGCUUCAGCAACCGGUGUAAUGGCGAUCAGCCAUGACCAAGGUGCUAAAUCCAGCAAGCUCGAACAGCUUGGAAGAUAAGAAGAGACAAAAUCACUGACAAAGUCUUCUUCUUCCCCCAAAAAAAAAAAAAAAAAAAAAAAA; assay: SPR steady state; conditions: 150 mM NaCl, 2 mM MgCl2, HBS-N, 10 mM HEPES pH 7.4, apparent, no switching seen by FASST
# [3] = tested on: SAM-I^1-156 (RNA, riboswitch) GGGAUAUCCGUUCUUAUCAAGAGAAGCAGAGGGACUGGCCCGACGAAGCUUCAGCAACCGGUGUAAUGGCGAUCAGCCAUGACCAAGGUGCUAAAUCCAGCAAGCUCGAACAGCUUGGAAGAUAAGAAGAGACAAAAUCACUGACAAAGUCUUCUUCUUCCCCCAAAAAAAAAAAAAAAAAAAAAAAA; assay: native PAGE switching with APO-FAM-SAM probe; conditions: MgCl2; THEM buffer pH 7.5; APO-FAM-SAM DNA probe displaced
# [4] = tested on: SAM-I^1-156 (RNA, riboswitch) GGGAUAUCCGUUCUUAUCAAGAGAAGCAGAGGGACUGGCCCGACGAAGCUUCAGCAACCGGUGUAAUGGCGAUCAGCCAUGACCAAGGUGCUAAAUCCAGCAAGCUCGAACAGCUUGGAAGAUAAGAAGAGACAAAAUCACUGACAAAGUCUUCUUCUUCCCCCAAAAAAAAAAAAAAAAAAAAAAAA; assay: fluorescence anisotropy switching (FASST), APO probe; conditions: 150 mM NaCl, 2 mM MgCl2; 10 mM HEPES pH 7.4, 37 °C; 75 nM RNA; 50 nM APO-FAM-SAM DNA probe displaced
# [5] = tested on: SAM-I^1-156 (RNA, riboswitch) GGGAUAUCCGUUCUUAUCAAGAGAAGCAGAGGGACUGGCCCGACGAAGCUUCAGCAACCGGUGUAAUGGCGAUCAGCCAUGACCAAGGUGCUAAAUCCAGCAAGCUCGAACAGCUUGGAAGAUAAGAAGAGACAAAAUCACUGACAAAGUCUUCUUCUUCCCCCAAAAAAAAAAAAAAAAAAAAAAAA; assay: fluorescence anisotropy switching (FASST), HOLO probe; conditions: 150 mM NaCl, 2 mM MgCl2; 10 mM HEPES pH 7.4, 37 °C; 350 nM RNA; 50 nM HOLO-FAM-SAM DNA probe hybridizes
# [6] = tested on: SAM-I riboswitch without spacer and poly(A) tail (RNA, riboswitch) GGGAUAUCCGUUCUUAUCAAGAGAAGCAGAGGGACUGGCCCGACGAAGCUUCAGCAACCGGUGUAAUGGCGAUCAGCCAUGACCAAGGUGCUAAAUCCAGCAAGCUCGAACAGCUUGGAAGAUAAGAAGAGACAAAAUCACUGACAAAGUCUUCUUCUU; assay: fluorescence anisotropy switching (FASST), APO probe; conditions: 150 mM NaCl, 2 mM MgCl2; 10 mM HEPES pH 7.4; APO-FAM-SAM DNA probe displaced
# [7] = tested on: SAM-I^1-156 (RNA, riboswitch) GGGAUAUCCGUUCUUAUCAAGAGAAGCAGAGGGACUGGCCCGACGAAGCUUCAGCAACCGGUGUAAUGGCGAUCAGCCAUGACCAAGGUGCUAAAUCCAGCAAGCUCGAACAGCUUGGAAGAUAAGAAGAGACAAAAUCACUGACAAAGUCUUCUUCUUCCCCCAAAAAAAAAAAAAAAAAAAAAAAA; assay: SPR kinetics; conditions: 150 mM NaCl, MgCl2; HBS-N, 10 mM HEPES pH 7.4; apparent
# [8] = tested on: SAM-I^1-156 (RNA, riboswitch) GGGAUAUCCGUUCUUAUCAAGAGAAGCAGAGGGACUGGCCCGACGAAGCUUCAGCAACCGGUGUAAUGGCGAUCAGCCAUGACCAAGGUGCUAAAUCCAGCAAGCUCGAACAGCUUGGAAGAUAAGAAGAGACAAAAUCACUGACAAAGUCUUCUUCUUCCCCCAAAAAAAAAAAAAAAAAAAAAAAA; assay: native PAGE switching, no probe; conditions: MgCl2; THEM buffer pH 7.5; 0.5 μM RNA; top band; bottom band 23 ± 9 μM
# [9] = tested on: SAM-I^AD (yitJ SAM-I aptamer domain) (RNA, riboswitch) GGGCGUUCUUAUCAAGAGAAGCAGAGGGACUGGCCCGACGAAGCUUCAGCAACCGGUGUAAUGGCGAUCAGCCAUGACCAAGGUGCUAAAUCCAGCAAGCUCGAACAGCUUGGAAGAUAAGAAGCCCCCAAAAAAAAAAAAAAAAAAAAAAAA; assay: SPR kinetics; conditions: 150 mM NaCl, MgCl2; HBS-N, 10 mM HEPES pH 7.4; apparent
# [10] = tested on: SAM-I^AD (yitJ SAM-I aptamer domain) (RNA, riboswitch) GGGCGUUCUUAUCAAGAGAAGCAGAGGGACUGGCCCGACGAAGCUUCAGCAACCGGUGUAAUGGCGAUCAGCCAUGACCAAGGUGCUAAAUCCAGCAAGCUCGAACAGCUUGGAAGAUAAGAAGCCCCCAAAAAAAAAAAAAAAAAAAAAAAA; assay: ITC; conditions: 150 mM NaCl, 2 mM MgCl2; 10 mM HEPES pH 7.4, 25 °C; 10 μM RNA
# [11] = tested on: SAM-I riboswitch without spacer and poly(A) tail (RNA, riboswitch) GGGAUAUCCGUUCUUAUCAAGAGAAGCAGAGGGACUGGCCCGACGAAGCUUCAGCAACCGGUGUAAUGGCGAUCAGCCAUGACCAAGGUGCUAAAUCCAGCAAGCUCGAACAGCUUGGAAGAUAAGAAGAGACAAAAUCACUGACAAAGUCUUCUUCUU; assay: fluorescence anisotropy switching (FASST), HOLO probe; conditions: 150 mM NaCl, 2 mM MgCl2; 10 mM HEPES pH 7.4; HOLO-FAM-SAM DNA probe hybridizes
# [12] = tested on: SAM-I^1-156 (RNA, riboswitch) GGGAUAUCCGUUCUUAUCAAGAGAAGCAGAGGGACUGGCCCGACGAAGCUUCAGCAACCGGUGUAAUGGCGAUCAGCCAUGACCAAGGUGCUAAAUCCAGCAAGCUCGAACAGCUUGGAAGAUAAGAAGAGACAAAAUCACUGACAAAGUCUUCUUCUUCCCCCAAAAAAAAAAAAAAAAAAAAAAAA; assay: native PAGE switching with HOLO-FAM-SAM probe; conditions: MgCl2; THEM buffer pH 7.5; HOLO-FAM-SAM DNA probe hybridizes
# [13] = tested on: FMN^1-212 (RNA, riboswitch) GGGAAAAAUAAAUAUUAAAAAUAAUCUUCGGGGCAGGGUGAAAUUCCCGACCGGUGGUAUAGUCCACGAAAGUAUUUGCUUUGAUUUGGUGAAAUUCCAAAACCGACAGUAGAGUCUGGAUGAGAGAAGAAAAGAAAUUUAAGUUUUUUAACUUGUUUUCUACAUUUUAGUAAUCUUACCCGAAUUCUAUAAUUCGGUUUUUUUAUUUUAACUGGCCCCCAAAAAAAAAAAAAAAAAAAAAAAA; assay: fluorescence anisotropy switching (FASST), APO probe; conditions: 150 mM NaCl, 5 mM MgCl2, 350 nM RNA, 5 nM APO-FAM-FMN DNA probe displaced
# [14] = tested on: FMN^1-212 (RNA, riboswitch) GGGAAAAAUAAAUAUUAAAAAUAAUCUUCGGGGCAGGGUGAAAUUCCCGACCGGUGGUAUAGUCCACGAAAGUAUUUGCUUUGAUUUGGUGAAAUUCCAAAACCGACAGUAGAGUCUGGAUGAGAGAAGAAAAGAAAUUUAAGUUUUUUAACUUGUUUUCUACAUUUUAGUAAUCUUACCCGAAUUCUAUAAUUCGGUUUUUUUAUUUUAACUGGCCCCCAAAAAAAAAAAAAAAAAAAAAAAA; assay: SPR; conditions: 150 mM NaCl, 5 mM MgCl2; HBS-N, 10 mM HEPES pH 7.4; apparent; Table 2 prints 150 ± 180 nM
# [15] = tested on: FMN^AD (FMN aptamer domain) (RNA, riboswitch) GGGAUCUUCGGGGCAGGGUGAAAUUCCCGACCGGUGGUAUAGUCCACGAAAGUAUUUGCUUUGAUUUGGUGAAAUUCCAAAACCGACAGUAGAGUCUGGAUGAGAGAAGACCCCCAAAAAAAAAAAAAAAAAAAAAAAA; assay: SPR kinetics; conditions: 150 mM NaCl, MgCl2; HBS-N, 10 mM HEPES pH 7.4; apparent
# [16] = tested on: FMN^1-212 (RNA, riboswitch) GGGAAAAAUAAAUAUUAAAAAUAAUCUUCGGGGCAGGGUGAAAUUCCCGACCGGUGGUAUAGUCCACGAAAGUAUUUGCUUUGAUUUGGUGAAAUUCCAAAACCGACAGUAGAGUCUGGAUGAGAGAAGAAAAGAAAUUUAAGUUUUUUAACUUGUUUUCUACAUUUUAGUAAUCUUACCCGAAUUCUAUAAUUCGGUUUUUUUAUUUUAACUGGCCCCCAAAAAAAAAAAAAAAAAAAAAAAA; assay: SPR steady state; conditions: 150 mM NaCl, 5 mM MgCl2; HBS-N, 10 mM HEPES pH 7.4; apparent
# [17] = tested on: FMN^AD (FMN aptamer domain) (RNA, riboswitch) GGGAUCUUCGGGGCAGGGUGAAAUUCCCGACCGGUGGUAUAGUCCACGAAAGUAUUUGCUUUGAUUUGGUGAAAUUCCAAAACCGACAGUAGAGUCUGGAUGAGAGAAGACCCCCAAAAAAAAAAAAAAAAAAAAAAAA; assay: SPR steady state; conditions: 150 mM NaCl, MgCl2; HBS-N, 10 mM HEPES pH 7.4
structure (smiles),measurement,setting,value
Nc1ncnc2c1ncn2[C@@H]1O[C@H](C[C@@H](N)CC[C@H](N)C(=O)O)[C@@H](O)[C@H]1O,KD,[1],129 ± 14 µM
same,KD,[2]; error exceeds value,2000 ± 3000 µM
C[S+](CC[C@H](N)C(=O)O)C[C@H]1O[C@@H](n2cnc3c(N)ncnc32)[C@H](O)[C@@H]1O (some centres unmarked),S50 NP,[3],46 ± 44 µM
same,S50FASST,[4],19 ± 12 µM
same,S50FASST,[5],1.7 ± 0.4 µM
same,S50FASST,[6],8 ± 3 µM
same,KD,[7],0.0101 ± 0.0004 µM
same,S50 NP,[8],6 ± 2 µM
same,KD,[9],0.004 ± 0.002 µM
same,KD,[10],0.128 ± 0.027 µM
same,S50FASST,[11],0.19 ± 0.08 µM
same,S50 NP,[12],1.03 ± 0.08 µM
Cc1cc2nc3c(=O)[nH]c(=O)nc-3n(C[C@H](O)[C@H](O)[C@H](O)COP(=O)(O)O)c2cc1C,S50FASST,"[13]; 10 mM HEPES pH 7.4, 37 °C",0.29 ± 0.06 µM
same,KD,[14],0.095 ± 0.05 µM
same,KD,[15],0.16 ± 0.012 µM
Nc1ncnc2c1ncn2[C@@H]1O[C@H](CSCC[C@H](N)C(=O)O)[C@@H](O)[C@H]1O,KD,[1],195 ± 22 µM
same,KD,[2],46 ± 27 µM
Cc1cc2nc3c(=O)[nH]c(=O)nc-3n(C[C@H](O)[C@H](O)[C@H](O)CO)c2cc1C,S50FASST,"[13]; 10 mM HEPES pH 7.4, overnight",0.7 ± 0.3 µM
same,KD,[16],32 ± 11 µM
same,KD,[17],30 ± 18 µM
Cc1cc2nc3c(=O)[nH]c(=O)nc-3n(C[C@H](O)[C@H](O)[C@H](O)CO)c2cc1N(C)C,S50FASST,"[13]; 10 mM HEPES pH 7.4, overnight",24 ± 20 µM
same,KD,[16],4.9 ± 0.2 µM
same,KD,[17],2 ± 1 µM
